According to ChEMBL document CHEMBL3232711, “Novel inhibitors of the MDM2-p53 interaction featuring hydrogen bond acceptors as carboxylic acid isosteres” (J Med Chem, 2014):

Experiments:
[1] = Clearance in rat at 0.5 mg/kg, iv; type: ADME, organism-based; parameters: dose 0.5 mg/kg, route intravenous; conditions: in vivo
[2] = Volume of distribution at steady state in rat at 0.5 mg/kg, iv; type: ADME, organism-based; parameters: dose 0.5 mg/kg, route intravenous; conditions: in vivo, read-out: Vdss
[3] = Intrinsic clearance in human hepatocytes measured per 10^6 cells; type: ADME, cell-based, Hepatocyte; conditions: read-out: CLH
[4] = Oral bioavailability in mouse at 5 mg/kg; type: ADME, organism-based; conditions: in vivo
[5] = Half life in rat at 0.5 mg/kg, iv; type: ADME, organism-based; parameters: dose 0.5 mg/kg, route intravenous; conditions: in vivo
[6] = Volume of distribution at steady state in mouse at 0.5 mg/kg, iv; type: ADME, organism-based; parameters: dose 0.5 mg/kg, route intravenous; conditions: in vivo, read-out: Vdss
[7] = Clearance in mouse at 0.5 mg/kg, iv; type: ADME, organism-based; parameters: dose 0.5 mg/kg, route intravenous; conditions: in vivo
[8] = Half life in mouse at 0.5 mg/kg, iv; type: ADME, organism-based; parameters: dose 0.5 mg/kg, route intravenous; conditions: in vivo
[9] = Drug metabolism in dog hepatocytes assessed as 2-(2-(((3R,5R,6S)-1-((S)-2-(tert-butylsulfonyl)-1-cyclopropylethyl)-6-(4-chloro-3-fluorophenyl)-5-(3-chlorophenyl)-3-methyl-2-oxopiperidin-3-yl)methyl)thiazol-5-yl)acetic acid formation at 10 uM after 2 hrs by LC-MS/MS analysis; type: ADME, cell-based, Canis lupus familiaris, Hepatocyte
[10] = Drug metabolism in rat hepatocytes assessed as 2-(2-(((3R,5R,6S)-1-((S)-2-(tert-butylsulfonyl)-1-cyclopropylethyl)-6-(4-chloro-3-fluorophenyl)-5-(3-chlorophenyl)-3-methyl-2-oxopiperidin-3-yl)methyl)thiazol-5-yl)acetic acid formation at 10 uM after 2 hrs by LC-MS/MS analysis; type: ADME, cell-based, Hepatocyte
[11] = Drug metabolism in human hepatocytes assessed as 2-(2-(((3R,5R,6S)-1-((S)-2-(tert-butylsulfonyl)-1-cyclopropylethyl)-6-(4-chloro-3-fluorophenyl)-5-(3-chlorophenyl)-3-methyl-2-oxopiperidin-3-yl)methyl)thiazol-5-yl)acetic acid metabolite formation at 10 uM after 2 hrs by LC-MS/MS analysis; type: ADME, cell-based, Hepatocyte
[12] = Drug metabolism in mouse hepatocytes assessed as oxidative metabolite formation at 10 uM after 2 hrs by LC-MS/MS analysis; type: ADME, cell-based, Hepatocyte
[13] = Drug metabolism in human hepatocytes assessed as oxidative metabolite formation at 10 uM after 2 hrs by LC-MS/MS analysis; type: ADME, cell-based, Hepatocyte
[14] = Drug metabolism in monkey hepatocytes assessed as oxidative metabolite formation at 10 uM after 2 hrs by LC-MS/MS analysis; type: ADME, cell-based, Macaca mulatta, Hepatocyte; conditions: rhesus monkey
[15] = Drug metabolism in monkey hepatocytes assessed as 2-(2-(((3R,5R,6S)-1-((S)-2-(tert-butylsulfonyl)-1-cyclopropylethyl)-6-(4-chloro-3-fluorophenyl)-5-(3-chlorophenyl)-3-methyl-2-oxopiperidin-3-yl)methyl)thiazol-5-yl)acetic acid formation at 10 uM after 2 hrs by LC-MS/MS analysis; type: ADME, cell-based, Macaca mulatta, Hepatocyte; conditions: rhesus monkey
[16] = Drug metabolism in rat hepatocytes assessed as oxidative metabolite formation at 10 uM after 2 hrs by LC-MS/MS analysis; type: ADME, cell-based, Hepatocyte
[17] = Drug metabolism in dog hepatocytes assessed as oxidative metabolite formation at 10 uM after 2 hrs by LC-MS/MS analysis; type: ADME, cell-based, Canis lupus familiaris, Hepatocyte
[18] = Drug metabolism in mouse hepatocytes assessed as 2-(2-(((3R,5R,6S)-1-((S)-2-(tert-butylsulfonyl)-1-cyclopropylethyl)-6-(4-chloro-3-fluorophenyl)-5-(3-chlorophenyl)-3-methyl-2-oxopiperidin-3-yl)methyl)thiazol-5-yl)acetic acid formation at 10 uM after 2 hrs by LC-MS/MS analysis; type: ADME, cell-based, Hepatocyte

CC(C)(C)S(=O)(=O)C[C@H](C1CC1)N1C(=O)[C@@](C)(Cc2ccc(C(=O)O)cn2)C[C@H](c2cccc(Cl)c2)[C@H]1c1ccc(Cl)cc1
clearance [1]: 6 mL/min/kg | Vd [2]: 0.41 L/kg | hepatocyte CLint [3]: 10 µL/min/1e6 cells | bioavailability [4]: 60% | half-life [5]: 1.8 h | Vd [6]: 0.57 L/kg | clearance [7]: 3.83 mL/min/kg | half-life [8]: 2.8 h

CC(C)(C)S(=O)(=O)C[C@H](C1CC1)N1C(=O)[C@@](C)(Cc2ncc(CC(=O)O)s2)C[C@H](c2cccc(Cl)c2)[C@H]1c1ccc(Cl)c(F)c1
clearance [1]: 3.83 mL/min/kg | Vd [2]: 0.27 L/kg | Drug metabolism [9]: metabolite_notdetected | Drug metabolism [10]: metabolite_notdetected | Drug metabolism [11]: metabolite_notdetected | Drug metabolism [12]: metabolite_detected | hepatocyte CLint [3]: 5.5 µL/min/1e6 cells | bioavailability [4]: 56% | half-life [5]: 4.4 h | Drug metabolism [13]: metabolite_detected | Drug metabolism [14]: metabolite_detected | Vd [6]: 0.35 L/kg | Drug metabolism [15]: metabolite_notdetected | Drug metabolism [16]: metabolite_detected | clearance [7]: 2.5 mL/min/kg | half-life [8]: 3.2 h | Drug metabolism [17]: metabolite_detected | Drug metabolism [18]: metabolite_notdetected

CC(C)(C)S(=O)(=O)C[C@H](C1CC1)N1C(=O)[C@@](C)(Cc2nc(CC(=O)O)cs2)C[C@H](c2cccc(Cl)c2)[C@H]1c1ccc(Cl)cc1
hepatocyte CLint [3]: 5.3 µL/min/1e6 cells

CC(C)(C)S(=O)(=O)C[C@H](C1CC1)N1C(=O)[C@@](C)(Cc2ccc(C(=O)O)cn2)C[C@H](c2cccc(Cl)c2)[C@H]1c1ccc(Cl)c(F)c1
hepatocyte CLint [3]: 7.8 µL/min/1e6 cells

CC(C)(C)S(=O)(=O)C[C@H](C1CC1)N1C(=O)[C@@](C)(Cc2ccc(CC(=O)O)cn2)C[C@H](c2cccc(Cl)c2)[C@H]1c1ccc(Cl)cc1
hepatocyte CLint [3]: 3.4 µL/min/1e6 cells

CC(C)(C(=O)O)c1ccc(C[C@@]2(C)C[C@H](c3cccc(Cl)c3)[C@@H](c3ccc(Cl)cc3)N([C@H](CS(=O)(=O)C(C)(C)C)C3CC3)C2=O)nc1
hepatocyte CLint [3]: < 0.1 µL/min/1e6 cells

Cc1nc(C[C@@]2(C)C[C@H](c3cccc(Cl)c3)[C@@H](c3ccc(Cl)cc3)N([C@H](CS(=O)(=O)C(C)(C)C)C3CC3)C2=O)ccc1C(=O)O
hepatocyte CLint [3]: 26 µL/min/1e6 cells

Cc1cc(C[C@@]2(C)C[C@H](c3cccc(Cl)c3)[C@@H](c3ccc(Cl)cc3)N([C@H](CS(=O)(=O)C(C)(C)C)C3CC3)C2=O)ncc1C(=O)O
hepatocyte CLint [3]: 5.1 µL/min/1e6 cells

CC(C)(C)S(=O)(=O)C[C@H](C1CC1)N1C(=O)[C@@](C)(Cc2ncc(C(=O)O)cn2)C[C@H](c2cccc(Cl)c2)[C@H]1c1ccc(Cl)cc1
hepatocyte CLint [3]: 10 µL/min/1e6 cells

CC(C)(C)S(=O)(=O)C[C@H](C1CC1)N1C(=O)[C@@](C)(Cc2ncc(C(=O)O)cn2)C[C@H](c2cccc(Cl)c2)[C@H]1c1ccc(Cl)c(F)c1
hepatocyte CLint [3]: 14 µL/min/1e6 cells

CC(C)(C)S(=O)(=O)C[C@H](C1CC1)N1C(=O)[C@@](C)(Cc2cnc(C(=O)O)cn2)C[C@H](c2cccc(Cl)c2)[C@H]1c1ccc(Cl)cc1
hepatocyte CLint [3]: 25 µL/min/1e6 cells

CC(C)(C)S(=O)(=O)C[C@H](C1CC1)N1C(=O)[C@@](C)(Cn2cc(C(=O)O)cn2)C[C@H](c2cccc(Cl)c2)[C@H]1c1ccc(Cl)cc1
hepatocyte CLint [3]: 2.8 µL/min/1e6 cells

CC(C)(C)S(=O)(=O)C[C@H](C1CC1)N1C(=O)[C@@](C)(Cc2nc(C(=O)O)cs2)C[C@H](c2cccc(Cl)c2)[C@H]1c1ccc(Cl)cc1
hepatocyte CLint [3]: 1.8 µL/min/1e6 cells

CC(C)(C)S(=O)(=O)C[C@H](C1CC1)N1C(=O)[C@@](C)(Cc2ncc(C(=O)O)s2)C[C@H](c2cccc(Cl)c2)[C@H]1c1ccc(Cl)cc1
clearance [1]: 3.17 mL/min/kg | Vd [2]: 0.18 L/kg | hepatocyte CLint [3]: 8.7 µL/min/1e6 cells | bioavailability [4]: 18% | half-life [5]: 3.6 h | Vd [6]: 0.67 L/kg | clearance [7]: 5.83 mL/min/kg | half-life [8]: 3.3 h

CC(C)(C)S(=O)(=O)C[C@H](C1CC1)N1C(=O)[C@@](C)(Cc2ncc(C(=O)CO)s2)C[C@H](c2cccc(Cl)c2)[C@H]1c1ccc(Cl)cc1
hepatocyte CLint [3]: 47 µL/min/1e6 cells

CC(C)(C)S(=O)(=O)C[C@H](C1CC1)N1C(=O)[C@@](C)(Cc2ncc(C(=O)O)s2)C[C@H](c2cccc(Cl)c2)[C@H]1c1ccc(Cl)c(F)c1
clearance [1]: 1.5 mL/min/kg | Vd [2]: 0.41 L/kg | hepatocyte CLint [3]: 10 µL/min/1e6 cells | bioavailability [4]: 36% | half-life [5]: 2.3 h | Vd [6]: 0.53 L/kg | clearance [7]: 2.5 mL/min/kg | half-life [8]: 4.1 h

CC(C)(C)S(=O)(=O)C[C@H](C1CC1)N1C(=O)[C@@](C)(Cc2nccs2)C[C@H](c2cccc(Cl)c2)[C@H]1c1ccc(Cl)c(F)c1
hepatocyte CLint [3]: 14 µL/min/1e6 cells

CC(C)(C)S(=O)(=O)C[C@H](C1CC1)N1C(=O)[C@@](C)(Cc2ncc(CC(=O)O)s2)C[C@H](c2cccc(Cl)c2)[C@H]1c1ccc(Cl)cc1
clearance [1]: 22.8 mL/min/kg | Vd [2]: 0.74 L/kg | hepatocyte CLint [3]: 5.8 µL/min/1e6 cells | bioavailability [4]: 10% | half-life [5]: 1.81 h | Vd [6]: 0.72 L/kg | clearance [7]: 7.17 mL/min/kg | half-life [8]: 2.01 h

CC(C)(C(=O)O)c1cnc(C[C@@]2(C)C[C@H](c3cccc(Cl)c3)[C@@H](c3ccc(Cl)cc3)N([C@H](CS(=O)(=O)C(C)(C)C)C3CC3)C2=O)s1
hepatocyte CLint [3]: 3.6 µL/min/1e6 cells

CC(C)(C)S(=O)(=O)C[C@H](C1CC1)N1C(=O)[C@@](C)(Cc2ncc(C3(C(=O)O)CC3)s2)C[C@H](c2cccc(Cl)c2)[C@H]1c1ccc(Cl)cc1
hepatocyte CLint [3]: 7.7 µL/min/1e6 cells

CC(C)(C)S(=O)(=O)C[C@H](C1CC1)N1C(=O)[C@@](C)(Cc2ncc(C(F)(F)C(=O)O)s2)C[C@H](c2cccc(Cl)c2)[C@H]1c1ccc(Cl)c(F)c1
hepatocyte CLint [3]: 4.7 µL/min/1e6 cells

CC(C)(C)S(=O)(=O)C[C@H](C1CC1)N1C(=O)[C@@](C)(Cc2ncc(CC(=O)O)o2)C[C@H](c2cccc(Cl)c2)[C@H]1c1ccc(Cl)c(F)c1
hepatocyte CLint [3]: 4.3 µL/min/1e6 cells

CC(C)(C)S(=O)(=O)C[C@H](C1CC1)N1C(=O)[C@@](C)(Cc2nnc(CC(=O)O)[nH]2)C[C@H](c2cccc(Cl)c2)[C@H]1c1ccc(Cl)cc1
hepatocyte CLint [3]: 10 µL/min/1e6 cells

CC(C)(C)S(=O)(=O)C[C@H](C1CC1)N1C(=O)[C@@](C)(Cc2ncc(CC(=O)O)[nH]2)C[C@H](c2cccc(Cl)c2)[C@H]1c1ccc(Cl)cc1
hepatocyte CLint [3]: 5 µL/min/1e6 cells
